From US10961228B2, “JAK1 selective inhibitors” (AstraZeneca AB, priority 2017, dated 2021)

Tests used:
[1] = molecular target: recombinant JAK1 (amino acids 866-1154) (Homo sapiens (Human), UniProt P23458); experiment: Enzyme inhibition studies, JAK1 (5 mM ATP, Caliper); format: biochemical
Procedure: (§1) JAK enzyme was expressed as N-terminal GST fusion in insect cells and purified by glutathione-affinity and size-exclusion chromatographies. Enzymes were assayed at their approximated high end of physiological ATP concentration of 5 mM, in the presence of inhibitor dosed at 30, 3, 0.3, 0.03, 0.003 and 0 μM final test concentrations.
(§2) Phosphorylated and unphosphotylated peptides were separated and quantified by a Caliper LC3000 system (Caliper Life Sciences, MA) for calculating percent inhibition.

[2] = molecular target: recombinant JAK3 (amino acids 781-1124) (Homo sapiens (Human), UniProt P52333); experiment: Enzyme inhibition studies, JAK3 (5 mM ATP, Caliper); format: biochemical
Chain of recombinant JAK3 (amino acids 781-1124) (P52333 781-1124): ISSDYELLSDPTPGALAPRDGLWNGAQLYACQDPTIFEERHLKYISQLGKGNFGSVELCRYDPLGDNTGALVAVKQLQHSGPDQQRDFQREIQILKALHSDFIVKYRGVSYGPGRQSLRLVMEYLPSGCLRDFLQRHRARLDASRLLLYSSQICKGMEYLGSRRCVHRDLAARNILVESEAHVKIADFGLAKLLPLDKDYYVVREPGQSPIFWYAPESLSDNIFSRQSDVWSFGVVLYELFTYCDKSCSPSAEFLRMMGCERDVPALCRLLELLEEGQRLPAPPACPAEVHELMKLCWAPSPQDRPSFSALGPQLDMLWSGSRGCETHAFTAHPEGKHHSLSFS
Procedure: as §1, §2

[3] = test system: IL-13 induced STAT6 promotor luciferase reporter in U937 monocytes (U937-STAT6-Luc); experiment: Cellular interleukin (IL-13) induced JAK-STAT6-luciferase assay (pSTAT6); format: cell-based; details: Homo sapiens, U-937; IL-13 induced STAT6-luciferase, U937-STAT6-Luc cells
Procedure: Cells were harvested by centrifugation at 250 g for 5 min and resuspended in Assay buffer (20 mM HEPES, 1×HBSS and 0.1% BSA) to 1000 cells pr μl. For stimulation of cells was used interleukin (IL-13) also dissolved in Assay buffer to […]. […] Test and control compounds were applied to assay plates (low vol white 384-well plates) in serial dilutions from 10 mM to 0.5 nM at 5 nl pr well in DMSO.
To each well was added 4 μl cells and 4 μl interleukin (IL-13) and the plates were sealed and incubated at 37° C. for 4½ h and then at room temperature for 30 min. The assay was developed by addition of 4 μl pr well of SteadyGlo (Promega) and after […] the plates were read at an Envision plate reader with luminescence filter.

[4] = molecular target: recombinant JAK2 (amino acids 831-1132) (Homo sapiens (Human), UniProt O60674); experiment: Enzyme inhibition studies, JAK2 (5 mM ATP, Caliper); format: biochemical
Chain of recombinant JAK2 (amino acids 831-1132) (O60674 831-1132): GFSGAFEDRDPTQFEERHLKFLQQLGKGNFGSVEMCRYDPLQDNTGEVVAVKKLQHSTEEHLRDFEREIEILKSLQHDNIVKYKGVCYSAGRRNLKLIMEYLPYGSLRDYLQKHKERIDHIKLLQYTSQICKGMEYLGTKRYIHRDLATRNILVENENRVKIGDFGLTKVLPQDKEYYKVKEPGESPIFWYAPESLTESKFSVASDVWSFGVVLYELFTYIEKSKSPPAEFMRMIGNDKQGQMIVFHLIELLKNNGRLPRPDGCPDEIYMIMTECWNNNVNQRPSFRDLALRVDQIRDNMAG
Procedure: as §1, §2

Chain of recombinant JAK1 (amino acids 866-1154) (P23458 866-1154): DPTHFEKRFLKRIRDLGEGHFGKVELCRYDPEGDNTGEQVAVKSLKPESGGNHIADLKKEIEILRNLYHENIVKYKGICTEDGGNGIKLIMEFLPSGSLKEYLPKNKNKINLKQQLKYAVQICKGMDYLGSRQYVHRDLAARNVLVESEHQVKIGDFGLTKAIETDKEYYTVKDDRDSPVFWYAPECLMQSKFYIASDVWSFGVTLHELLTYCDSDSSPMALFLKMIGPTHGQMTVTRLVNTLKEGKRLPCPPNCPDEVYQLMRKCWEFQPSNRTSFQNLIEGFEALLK

Row | Structure (SMILES) | IC50 [1] [µM] | IC50 [2] [µM] | IC50 [3] [µM] | IC50 [4] [µM]
1 | CC(C(=O)Nc1cccc2c(-c3nc(Nc4cccc(S(C)(=O)=O)c4F)ncc3F)c[nH]c12)N1CCN(C)C[C@H]1C (stereo in doubt) [Example 49, (R)-2-((R)-2,4-dimethylpiperazin-1-yl)-N-(3-(5-fluoro-2-((2-fluoro-3-(methylsulfonyl)phenyl)amino)pyrimidin-4-yl)-1H-indol-7-yl)propanamide] | 0.013 | > 30 | 0.093 | –
2 | CC[C@@H](C(=O)Nc1cccc2c(-c3nc(Nc4cccc(S(C)(=O)=O)c4F)ncc3C)c[nH]c12)N1CCN(C)CC1C (stereo in doubt) [Example 50, (S)-2-((R)-2,4-dimethylpiperazin-1-yl)-N-(3-(2-((2-fluoro-3-(methylsulfonyl)phenyl)amino)-5-methylpyrimidin-4-yl)-1H-indol-7-yl)butanamide] | 0.0485 | > 30 | 0.362 | > 30
3 | CC[C@H](C(=O)Nc1cccc2c(-c3nc(Nc4cccc(S(C)(=O)=O)c4F)ncc3C)c[nH]c12)N1CCN(C)CC1C (stereo in doubt) [Example 51, (R)-2-((R)-2,4-dimethylpiperazin-1-yl)-N-(3-(2-((2-fluoro-3-(methylsulfonyl)phenyl)amino)-5-methylpyrimidin-4-yl)-1H-indol-7-yl)butanamide] | < 0.003 | > 30 | 0.024 | 0.612
4 | CC[C@@H](C(=O)Nc1cccc2c(-c3nc(Nc4cccc(S(C)(=O)=O)c4F)ncc3F)c[nH]c12)N1CCN(C)CC1C (stereo in doubt) [Example 52, (S)-2-((R)-2,4-dimethylpiperazin-1-yl)-N-(3-(5-fluoro-2-((2-fluoro-3-(methylsulfonyl)phenyl)amino)pyrimidin-4-yl)-1H-indol-7-yl)butanamide] | 0.348 | > 30 | 1.07 | > 30
5 | CC[C@H](C(=O)Nc1cccc2c(-c3nc(Nc4cccc(S(C)(=O)=O)c4F)ncc3F)c[nH]c12)N1CCN(C)CC1C (stereo in doubt) [Example 53, (R)-2-((R)-2,4-dimethylpiperazin-1-yl)-N-(3-(5-fluoro-2-((2-fluoro-3-(methylsulfonyl)phenyl)amino)pyrimidin-4-yl)-1H-indol-7-yl)butanamide] | < 0.003 | > 30 | 0.048 | 2.08
6 | CC[C@H](C(=O)Nc1cccc2c(-c3nc(Nc4cccc(S(C)(=O)=O)c4F)ncc3C)c[nH]c12)N1CCN(C)CC1C (stereo in doubt) [Example 60, (R)-2-((S)-2,4-dimethylpiperazin-1-yl)-N-(3-(2-((2-fluoro-3-(methylsulfonyl)phenyl)amino)-5-methylpyrimidin-4-yl)-1H-indol-7-yl)butanamide] | 0.0074 | > 30 | 0.0642 | 11.9
7 | CC[C@@H](C(=O)Nc1cccc2c(-c3nc(Nc4cccc(S(C)(=O)=O)c4F)ncc3C)c[nH]c12)N1CCN(C)CC1C (stereo in doubt) [Example 61, (S)-2-((S)-2,4-dimethylpiperazin-1-yl)-N-(3-(2-((2-fluoro-3-(methylsulfonyl)phenyl)amino)-5-methylpyrimidin-4-yl)-1H-indol-7-yl)butanamide] | 0.0428 | > 30 | 0.163 | > 30
8 | Cc1cnc(Nc2cccc(S(C)(=O)=O)c2F)nc1-c1c[nH]c2c(NC(=O)[C@@H](C)N3CCN(CCO)CC3)cccc12 [Example 1, (R)-N-(3-(2-((2-fluoro-3-(methylsulfonyl)phenyl)amino)-5-methylpyrimidin-4-yl)-1H-indol-7-yl)-2-(4-(2-hydroxyethyl)piperazin-1-yl)propanamide] | < 0.003 | > 30 | 0.041 | 1.58
9 | Cc1cnc(Nc2cccc(S(C)(=O)=O)c2F)nc1-c1c[nH]c2c(NC(=O)[C@@H](C)N3CCN(C)CC3)cccc12 [Example 2, (R)-N-(3-(2-((2-fluoro-3-(methylsulfonyl)phenyl)amino)-5-methylpyrimidin-4-yl)-1H-indol-7-yl)-2-(4-methylpiperazin-1-yl)propanamide] | ≤ 0.003 | > 30 | 0.032 | 7.35
10 | CCS(=O)(=O)c1cccc(Nc2ncc(C)c(-c3c[nH]c4c(NC(=O)[C@@H](C)N5CCN(C)CC5)cccc34)n2)c1F [Example 3, (R)-N-(3-(2-(3-(ethylsulfonyl)-2-fluorophenylamino)-5-methylpyrimidin-4-yl)-1H-indol-7-yl)-2-(4-methylpiperazin-1-yl)propanamide] | < 0.003 | > 30 | 0.039 | 4.12
11 | Cc1cnc(Nc2cccc(S(=O)(=O)C3CC3)c2F)nc1-c1c[nH]c2c(NC(=O)[C@@H](C)N3CCN(C)CC3)cccc12 [Example 4] | < 0.003 | > 30 | 0.027 | 1.6
12 | C[C@H](C(=O)Nc1cccc2c(-c3nc(Nc4cccc(S(C)(=O)=O)c4F)ncc3Cl)c[nH]c12)N1CCN(C)CC1 [Example 5] | 0.0051 | > 30 | 0.029 | 5.02
13 | Cc1cnc(Nc2cccc(S(C)(=O)=O)c2F)nc1-c1c[nH]c2c(NC(=O)[C@H](C)N3CCN(C)CC3)cccc12 [Example 6, (S)-N-(3-(2-((2-fluoro-3-(methylsulfonyl)phenyl)amino)-5-methylpyrimidin-4-yl)-1H-indol-7-yl)-2-(4-methylpiperazin-1-yl)propanamide] | 0.0574 | > 30 | 0.172 | > 30
14 | Cc1cnc(Nc2cccc(S(C)(=O)=O)c2F)nc1-c1c[nH]c2c(NC(=O)[C@@H](C)N3C[C@H](C)N[C@@H](C)C3)cccc12 [Example 9, (R)-2-((3S,5S)-3,5-dimethylpiperazin-1-yl)-N-(3-(2-((2-fluoro-3-(methylsulfonyl)phenyl)amino)-5-methylpyrimidin-4-yl)-1H-indol-7-yl)propanamide] | – | – | 0.055 | –
15 | COC[C@@H](C(=O)Nc1cccc2c(-c3nc(Nc4cccc(S(C)(=O)=O)c4F)ncc3C)c[nH]c12)N1CCN(C)CC1 [Example 15, (S)-N-(3-(2-((2-fluoro-3-(methylsulfonyl)phenyl)amino)-5-methylpyrimidin-4-yl)-1H-indol-7-yl)-3-methoxy-2-(4-methylpiperazin-1-yl)propanamide] | 0.213 | > 30 | 0.465 | –
16 | COC[C@H](C(=O)Nc1cccc2c(-c3nc(Nc4cccc(S(C)(=O)=O)c4F)ncc3C)c[nH]c12)N1CCN(C)CC1 [Example 16, (R)-N-(3-(2-((2-fluoro-3-(methylsulfonyl)phenyl)amino)-5-methylpyrimidin-4-yl)-1H-indol-7-yl)-3-methoxy-2-(4-methylpiperazin-1-yl)propanamide] | < 0.003 | > 30 | 0.018 | –
17 | CC[C@H](C(=O)Nc1cccc2c(-c3nc(Nc4cccc(S(C)(=O)=O)c4F)ncc3C)c[nH]c12)N1C[C@H](C)N(C)[C@@H](C)C1 [Example 20, (R)-N-(3-(2-((2-fluoro-3-(methylsulfonyl)phenyl)amino)-5-methylpyrimidin-4-yl)-1H-indol-7-yl)-2-((3S,5S)-3,4,5-trimethylpiperazin-1-yl)butanamide] | – | – | 0.051 | –
18 | COC[C@@H](C(=O)Nc1cccc2c(-c3nc(Nc4cccc(S(C)(=O)=O)c4F)ncc3F)c[nH]c12)N1CCN(C)CC1 [Example 34, (S)-N-(3-(5-fluoro-2-((2-fluoro-3-(methylsulfonyl)phenyl)amino)pyrimidin-4-yl)-1H-indol-7-yl)-3-methoxy-2-(4-methylpiperazin-1-yl)propanamide] | 1.84 | > 30 | > 4.2 | –
19 | CCOC[C@H](C(=O)Nc1cccc2c(-c3nc(Nc4cccc(S(C)(=O)=O)c4F)ncc3F)c[nH]c12)N1CCN(C)CC1 [Example 63, (R)-3-ethoxy-N-(3-(5-fluoro-2-((2-fluoro-3-(methylsulfonyl)phenyl)amino)pyrimidin-4-yl)-1H-indol-7-yl)-2-(4-methylpiperazin-1-yl)propanamide] | – | – | 0.099 | –
20 | COC[C@H](C(=O)Nc1cccc2c(-c3nc(Nc4cccc(S(C)(=O)=O)c4F)ncc3F)c[nH]c12)N1CCNCC1 [Example 66, (R)-N-(3-(5-fluoro-2-(2-fluoro-3-(methylsulfonyl)phenylamino)pyrimidin-4-yl)-1H-indol-7-yl)-3-methoxy-2-(piperazin-1-yl)propanamide] | – | – | 0.051 | –
21 | COC[C@@H](C(=O)Nc1cccc2c(-c3nc(Nc4cccc(S(C)(=O)=O)c4F)ncc3F)c[nH]c12)N1CCNCC1 [Example 67, (S)-N-(3-(5-fluoro-2-(2-fluoro-3-(methylsulfonyl)phenylamino)pyrimidin-4-yl)-1H-indol-7-yl)-3-methoxy-2-(piperazin-1-yl)propanamide] | – | – | 1.39 | –
